Starred links: 1 amine or outer side, 2 acyl side, 3 side chain; linkers in the order of their positions; H or OH if unused. Positions of bridges follow the written chain, without caps; N, C: chain ends. Non-standard residues stand in square brackets, D forms with d. Residues, ends and D or L forms follow the SMILES beside them. Phe(3R-OH) = O=C([C@@H](N[*:1])[C@H](O[*:3])c1ccccc1)[*:2]; X1 = CC1CC(C)NC(NCCC[C@@H](N[*:1])C(=O)[*:2])=N1; Asn(3S-OH) = NC(=O)[C@@H](O)[C@H](N)C(=O)O; Leu(3R-OH) = CC(C)[C@@H](O)[C@H](N)C(=O)O; aThr = C[C@H](O)[C@H](N)C(=O)O
How the values were obtained:
E. faecalis ICB 27159 = type: cell-based, Enterococcus faecalis
Description: (§1) Determination of the Minimum Inhibitory Concentration (MIC): The MIC is determined in the liquid dilution test in accordance with the NCCLS guidelines. Overnight cultures of Staphylococcus aureus 133, Entercococcus faecalis 27159, E. faecium 4147 and Streptococcus pneumoniae G9a are incubated with the described test substances in a 1:2 dilution series. The MIC determination is carried out with a cell count of 10^5 microorganisms per ml in Isosensitest medium (Difco, Irvine/USA), with the exception of S. pneumoniae, which is tested in BHI broth (Difco, Irvine/USA) with 10% bovine serum at a cell count of 10^6 microorganisms per ml. The cultures are incubated at 37° C. for 18-24 hours, S. pneumoniae in the presence of 10% CO2. The lowest substance concentration in each case at which no visible bacterial growth occurs any more is defined as the MIC. The MIC values are reported in μg/ml.

[1] = test system: Streptococcus pneumoniae G9a; type: cell-based
Description: as §1

[2] = test system: Staphylococcus aureus 133; type: cell-based
Description: as §1

**Q.** For `CC[C@H](C)[C@@H]1NC(=O)[C@@H](CCCNC2=NC(C)CC(C)N2)NC(=O)[C@H](CC(C)C)NC(=O)[C@H]([C@H](O)C(C)C)NC(=O)[C@@H](NC(=O)[C@H](CC(C)C)NC(=O)[C@H](N)CC(C)C)[C@@H](c2ccccc2)OC(=O)[C@H](CO)NC(=O)[C@H]([C@H](O)C(N)=O)NC(=O)CNC(=O)[C@H]([C@H](C)O)NC1=O.O=C(O)C(F)(F)F.O=C(O)C(F)(F)F` (stereo partly drawn) [Example 3, N^ω.6,N^ω′.6-(Pentane[2,4]diyl)lysobactin] (H-[dL]L[Phe(3R-OH)][Leu(3R-OH)]L[X1]I[aThr]G[Asn(3S-OH)]S; ester 3-C), which “MIC E. faecalis ICB 27159” value (E. faecalis ICB 27159) is on record?
**A.** 2 µg/mL

**Q.** And the “MIC S. pneumoniae” value [1]?
**A.** 0.5 µg/mL

**Q.** And the “MIC S. aureus 133” value [2]?
**A.** 0.5 µg/mL
